Laboratory results reported in ChEMBL document CHEMBL3102825, “Exploration of a series of 5-arylidene-2-thioxoimidazolidin-4-ones as inhibitors of the cytolytic protein perforin” (J Med Chem, 2013).
Activity calls are given as the source filed them. No cut-off for these calls is given here.

Target: Perforin-1 (Mus musculus) (UniProt P10820)
Test: Reversible binding affinity to recombinant mouse perforin by SPR analysis

Sequence of Perforin-1 (Mus musculus) (P10820 whole entry, looked up): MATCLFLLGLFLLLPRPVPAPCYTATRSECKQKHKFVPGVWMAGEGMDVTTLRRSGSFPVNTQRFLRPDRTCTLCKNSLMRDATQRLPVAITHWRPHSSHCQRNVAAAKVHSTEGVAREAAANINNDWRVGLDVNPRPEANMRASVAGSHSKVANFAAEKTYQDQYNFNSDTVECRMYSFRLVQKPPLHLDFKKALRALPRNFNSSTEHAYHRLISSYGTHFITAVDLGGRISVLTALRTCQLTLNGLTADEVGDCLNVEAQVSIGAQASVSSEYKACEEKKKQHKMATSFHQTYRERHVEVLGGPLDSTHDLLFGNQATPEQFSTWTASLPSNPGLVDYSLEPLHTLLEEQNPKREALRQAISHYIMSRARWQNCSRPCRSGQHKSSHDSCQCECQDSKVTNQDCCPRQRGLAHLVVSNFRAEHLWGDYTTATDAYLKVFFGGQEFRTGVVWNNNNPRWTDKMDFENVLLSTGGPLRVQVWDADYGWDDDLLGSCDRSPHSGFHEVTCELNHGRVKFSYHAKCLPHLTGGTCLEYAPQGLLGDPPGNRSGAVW

Row | SMILES | Activity
1 | CC1c2cc(-c3ccc(/C=C4/[N-]C(=S)NC4=O)s3)ccc2C(=O)N1C.[Na+] (configuration not stated) | Active
2 | O=C1NC(=S)[N-]/C1=C/c1ccc(-c2ccc3c(c2)CCNC3=O)s1.[Na+] | Active
